Experiment: Photochromic properties of lens samples (2 mm, compound in matrix I or II) exposed to UV radiation from a xenon lamp
Format: physicochemical
Conditions: lens sample
Description: The matrix used in accordance with the present invention may be one of two types :
A homopolymer of the monomer DIACRYL 121 (D121 : tetraethoxylated Bisphenol A dimethylmethacrylate), marketed by Akzo Nobel; or
A copolymer comprised of a 50/50 mixture by weight of D121 (as above) and polyethylene glycol dimethacrylate (Molecular weight = 400) (PEGDMA 400).
10^-5 moles of at least one compound of the invention, together with 0.2% by weight of AMBN (2,2'-azobis(2-methylbutyronitrile)) provided by Akzo, are added to 10 g of formulations able to generate cross-linked matrix I or II. The formulations thus prepared are then poured into a lens mould of 2 mm thickness and then cured by heating at 60°C for 6 hours, followed by heating at 80°C for 2 hours to give a lens sample.
The photochromic properties of the lens samples thus obtained were then evaluated as follows :
Said lens sample, containing said photochromic compounds in its mass, is exposed to a UV radiation (source: xenon lamp).
Bleu D: 1,3-dihydro-1,3,3,5,6-pentamethylspiro[2H-indole-2'3'-[3H]-naphth-[2,1-b][1,4]oxazine] supplied by Great Lakes. T0 : the transmission before exposure to UV TD15 : the transmission after 15 minutes' exposure to UV OID : optical induced density (D∞-D0) [D∞ is the density after exposure, D0 the density before exposure] t1/2 : time of half-darkness which characterises the kinetics of the return to the initial state when at the equilibrium the exposure is cut off. λmax : the maximum absorption in the visible spectrum after UV irradiation.

[1] = Matrix II (50/50 D121 / PEGDMA 400 copolymer)
[2] = Matrix I (homopolymer of DIACRYL 121)

Compound | OID (optical induced density, D∞-D0) [1] | T0 (the transmission before exposure to UV) [1] | λmax (the maximum absorption in the visible spectrum after UV irradiation) [1] | OID (optical induced density, D∞-D0) [2] | T0 (the transmission before exposure to UV) [2] | λmax (the maximum absorption in the visible spectrum after UV irradiation) [2] | TD15 (the transmission after 15 minutes' exposure to UV) [1] | TD15 (the transmission after 15 minutes' exposure to UV) [2]
1,3-dihydro-1,3,3,4(5),5(6)-pentamethyl-5'-piperidinocarbonyl-spiro[2H]-indole-2,3'-[3H]naphth[2,1-b][1,4]oxazine [Example 5] | 1.067 | 80.7% | 622 nm | 0.905 | 77.6% | 626 nm | 6.9% | 9.7%
Cc1ccc(NC(=O)c2cc3ccccc3c3c2OC2(C=N3)N(C)c3ccccc3C2(C)C)cc1 (stereo not shown) [Example 3, 1,3-dihydro-1,3,3-trimethyl-5'-p-(tolylcarbamoyl)spiro[2H-indole-2,3'-[3H]-naphtho[2,1-b][1,4]oxazine]] |  |  |  | 0.707 | 75.5% | 634 nm |  | 14.8%
Cc1cc2c(cc1C)C(C)(C)C1(C=Nc3c(ccc4ccccc34)O1)N2C (stereo not shown) [Control II, 1,3-dihydro-1,3,3,5,6-pentamethylspiro[2H-indole-2'3'-[3H]-naphth-[2,1-b][1,4]oxazine], reference compound] | 0.357 | 90.5% | 616 nm | 0.280 | 90.5% | 616 nm | 39.8% | 47.5%
CN1c2ccccc2C(C)(C)C12C=Nc1c(c(C(=O)N3CCCCC3)cc3ccccc13)O2 (stereo not shown) [Example 2, 1,3-dihydro-1,3,3-trimethyl-5'-piperidinocarbonylspiro[2H-indole-2,3'-[3H]-naphtho[2,1-b][1,4]oxazine]] |  |  |  | 0.152 | 89.0% | 618 nm |  | 62.6%
CN1c2ccccc2C(C)(C)C12C=Nc1c(c(C(=O)N3CCOCC3)cc3ccccc13)O2 (stereo not shown) [Example 1, 1,3-dihydro-1,3,3-trimethyl-5'-morpholinocarbonylspiro[2H-indole-2,3'-[3H]-naphtho[2,1-b][1,4]oxazine]] | 0.324 | 88.9% | 620 nm |  |  |  | 42.2% | 
CN1c2ccccc2C(C)(C)C12C=Nc1c(ccc3ccccc13)O2 (stereo not shown) [Control I, 1,3-dihydro-1,3,3-trimethylspiro[2H-indole-2,3'-[3H]-naphth[2,1-b][1,4]oxazine], reference compound] | 0.140 | 90.5% | 610 nm | 0.142 | 90.9% | 607 nm | 65.5% | 65.6%

The next lines start with results.

OID (optical induced density, D∞-D0) [1] | T0 (the transmission before exposure to UV) [1] | λmax (the maximum absorption in the visible spectrum after UV irradiation) [1] | OID (optical induced density, D∞-D0) [2] | T0 (the transmission before exposure to UV) [2] | λmax (the maximum absorption in the visible spectrum after UV irradiation) [2] | Compound | TD15 (the transmission after 15 minutes' exposure to UV) [1] | TD15 (the transmission after 15 minutes' exposure to UV) [2]
0.858 | 81.9% | 634 nm |  |  |  | COc1ccc2c(c1)C(C)(C)C1(C=Nc3c(c(C(=O)N4CCCCC4)cc4ccccc34)O1)N2C (stereo not shown) [Example 6, 1,3-dihydro-5-methoxy-1,3,3-trimethyl-5'-piperidinocarbonylspiro[2H]-indole-2,3'-[3H]naphth[2,1-b][1,4]oxazine] | 11.3% | 
0.553 | 85.4% | 622 nm | 0.339 | 86.9% | 622 nm | CN1c2ccccc2C(C)(C)C12C=Nc1c(c(C(=O)N3CCc4ccccc43)cc3ccccc13)O2 (stereo not shown) [Example 4, 1,3-dihydro-1,3,3-trimethyl-5'-indolinocarbonylspiro[2H-indole-2,3'-[3H]-naphtho[2,1-b][1,4]oxazine]] | 23.9% | 39.8%
0.437 | 86.9% | 622 nm |  |  |  | CC(C)CN1c2ccccc2C(C)(C)C12C=Nc1c(c(C(=O)N3CCCCC3)cc3ccccc13)O2 (stereo not shown) [Example 7, 1,3-dihydro-1-(2'-methylpropyl)-3,3-dimethyl-5'-piperidinocarbonylspiro[2H-indole-2,3'-[3H]-naphtho[2,1-b] [1,4]oxazine]] | 31.8% | 

Source: patent EP1044978A2, “1-N-alkyl-5'-[(N'-(un)substituted)amido]spiroindolinonaphthoxazines, their preparation, compositions and (co)polymer matrices containing them” (Corning S.A., priority 1999, dated 2000)
